Entries after “also recorded” stand apart in the source; their conditions may differ.
Key:
11β-HSD1 [1] = molecular target: T1, 11β-HSD1 (Rattus norvegicus, UniProt P16232); assay: 11β-HSD1 reductase assay in ALC microsomes; assay type: biochemical; details: for LOEL on 11β-HSD1 reductase activity in ALC microsomes: 10 nM-10 μM tested
T1 construct: endogenous in cells; host or cells: primary rat adult Leydig cells (ALCs) from 90-day-old rat testes
Description: (§1) The microsomes from ALCs were prepared as described previously ([6]). In brief, ALCs were homogenized in cold 0.01M PBS, pH 7.2, containing 0.25 M sucrose. Subsequently, the homogenates were centrifuged at 700 × g for 30 min and the supernatants were transferred to other tubes followed by centrifugation at 10,000 × g for 30 min. The resultant supernatants were centrifuged twice at 105,000 × g for 1 h. The pellets were resuspended and the protein contents were determined by Bio-Rad Protein Assay Kit (cat# 500–0006, Bio-Rad, Hercules, CA). Microsomes were used to assay 11β-HSD1 oxidoreductase activities.
(§2) 11β-HSD1 oxidase and reductase in microsomes were performed as previously described ([15]). For measurements in microsomal preparations, microsomes were incubated with 25 nM [^3H]-CORT and 0.2 mM NADP^+ for oxidase or 25 nM [^3H]-DHC and 0.2 mM NADPH for reductase activity in presence of different concentrations of DHEA or 7αOHD. For testing mode of action, microsomes were incubated with 2 nM to 10 μM [^3H]-CORT and 0.2 mM NADP^+ for oxidase or 2 nM to 10 μM [^3H]-DHC and 0.2 mM NADPH for reductase activity. 1.5 μg of ALC microsomes were added to initiate the reaction. The reactions were stopped by adding 2 ml ice-cold ether. The steroids were extracted, and the organic layer was dried under nitrogen. The steroids were separated chromatographically on thin layer plates in chloroform and methanol (90:10, v/v), and the radioactivity was measured using a scanning radiometer (System AR2000, Bioscan Inc., Washington, DC). The percentage conversion of CORT to DHC and DHC to CORT was calculated by dividing the radioactive counts identified as DHC (or CORT, respectively) by the total counts associated with CORT plus DHC.

11β-HSD1 [2] = molecular target: T1, 11β-HSD1; assay: 11β-HSD1 oxidase assay in ALC microsomes; assay type: biochemical
Description: as §1, §2

11β-HSD1 [3] = molecular target: T1, 11β-HSD1; assay: 11β-HSD1 reductase assay in intact ALCs (DHC to CORT); assay type: cell-based; details: for lowest observable effective level (LOEL) on 11β-HSD1 reductase activity: 10 nM-10 μM tested
Excerpt: (§3) Testes were processed for purification of Leydig cells. The progenitor (PLC), immature (ILC), and adult Leydig cells (ALC) were purified from rat testes at 21, 35, and 90 days postpartum, as described previously ([25], [26]). In brief, forty 21-day-old (for PLCs), eighteen 35-day-old (for ILCs), and six 90-day-old (for ALCs) rats were sacrificed, followed by removal and decapsulation of testes. Then, the testes were digested with collagenase and cells were separated by Percoll density gradient centrifugation. Purities of Leydig cell fractions were evaluated by histochemical staining of 3β-hydroxysteroid dehydrogenase (3β-HSD), with 0.4 mM etiocholanolone as an enzyme substrate ([27]). At least six isolations per cell types were performed.
(§4) 11β-HSD1 oxidase and reductase in intact ALCs were performed as previously described ([15]).11β-HSD1 oxidase activity assay tubes contained 25 nM CORT spiked with 60,000 dpm [^3H]-CORT (a concentration within the range of physiological levels of CORT). 11β-HSD1 reductase activity assay tubes contained 25 nM DHC spiked with 60,000 dpm [^3H]-DHC. 2.5 × 10^4 intact ALCs were added to start the reaction and the reaction was maintained in 34°C and 75 rpm shaking water bath for 30 min. The reactions were stopped by adding 2 ml ice-cold ether. The steroids were extracted, and the organic layer was dried under nitrogen. The steroids were separated chromatographically on thin layer plates in chloroform and methanol (90:10, v/v), and the radioactivity was measured using a scanning radiometer (System AR2000, Bioscan Inc., Washington, DC). The percentage conversion of CORT to DHC and DHC to CORT was calculated by dividing the radioactive counts identified as DHC (or CORT, respectively) by the total counts associated with CORT plus DHC.

11β-HSD1 [4] = molecular target: T1, 11β-HSD1; assay: 11β-HSD1 oxidase assay in intact ALCs (CORT to DHC); assay type: cell-based; details: for lowest observable effective level (LOEL) on 11β-HSD1 oxidase activity: 10 nM-10 μM tested
Excerpt: as §3, §4

[5] = ALC microsomes, 0, 1 and 10 μM, Lineweaver-Burk plot

T1 sequence (P16232 whole entry): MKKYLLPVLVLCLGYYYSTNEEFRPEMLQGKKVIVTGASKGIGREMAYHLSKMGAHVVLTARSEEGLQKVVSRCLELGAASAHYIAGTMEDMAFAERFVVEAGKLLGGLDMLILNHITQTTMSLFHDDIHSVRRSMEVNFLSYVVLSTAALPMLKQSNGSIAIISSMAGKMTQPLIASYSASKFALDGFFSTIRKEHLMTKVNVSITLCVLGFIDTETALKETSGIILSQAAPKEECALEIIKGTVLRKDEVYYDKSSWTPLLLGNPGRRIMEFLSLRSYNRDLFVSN

**Q.** With C[C@]12CC[C@H](O)CC1=C[C@@H](O)[C@@H]1[C@@H]2CC[C@]2(C)C(=O)CC[C@@H]12 [7αOHD, 7α-hydroxydehydroepiandrosterone] as the compound, how does the “LOEL on 11β-HSD1 reductase activity in ALC microsomes” value (11β-HSD1 [1]; ALC microsomes) read?
**A.** The value was 100 nM.

**Q.** What about the EC50 (11β-HSD1 [1]; ALC microsomes, 25 nM DHC plus 0.2 mM NADPH, Mean ± SEM (n = 4), read-out: EC50 for stimulation of 11β-HSD1 reductase, microsome) of the same compound?
**A.** The EC50 was 200 ± 10 nM.

**Q.** And the “effect on 11β-HSD1 reductase activity in ALC microsomes at the highest concentration” value (11β-HSD1 [1]; at the highest concentration (100 nM))?
**A.** Its value is “did not affect”.

**Q.** And the “mode of action on 11β-HSD1 oxidase” value (11β-HSD1 [2]; [5])?
**A.** The value was “competitive inhibitor”.

**Q.** And the “LOEL on 11β-HSD1 oxidase activity in ALC microsomes” value (11β-HSD1 [2]; ALC microsomes, 10 nM-10 μM tested)?
**A.** Its value is 100 nM.

**Q.** And the “EC50/IC50 for 11β-HSD1 oxidase, microsome” value (11β-HSD1 [2]; ALC microsomes, 25 nM CORT plus 0.2 mM NADP+, ND, not detected, Mean ± SEM (n = 4))?
**A.** Its value is 0.93 ±0.14 ×10^−6 M.

**Q.** And the IC50 (11β-HSD1 [2]; ALC microsomes, 25 nM CORT plus 0.2 mM NADP+, read-out: IC50 for inhibiting 11β-HSD1 oxidase activity in ALC microsomes)?
**A.** Its IC50 is 930 nM.

**Q.** And the “11β-HSD1 oxidase activity in ALC microsomes” value (11β-HSD1 [2]; at 1 μM)?
**A.** The value was 60 % of control.

**Q.** What about the “11β-HSD1 oxidase activity in ALC microsomes” value (11β-HSD1 [2]; at 10 μM) of the same compound?
**A.** Its value is 25 % of control.

**Q.** And the “11β-HSD1 oxidase/reductase ratio in ALC microsomes” value (11β-HSD1 [2]; at 0.1–10 μM)?
**A.** The value was “significantly decreased”.

**Q.** What about the “lowest observable effective level (LOEL) on 11β-HSD1 reductase activity” value (11β-HSD1 [3]; intact ALCs) of the same compound?
**A.** Its value is 100 nM.

**Q.** And the EC50 (11β-HSD1 [3]; intact ALCs, 25 nM DHC, 0.5 h, Mean ± SEM (n = 4), read-out: EC50 for stimulation of 11β-HSD1 reductase, intact Leydig cells)?
**A.** Its EC50 is 700 ± 40 nM.

**Q.** And the 11β-HSD1 reductase activity (11β-HSD1 [3]; intact ALCs, at 1 μM)?
**A.** Its 11β-HSD1 reductase activity is 200 % of control.

**Q.** And the 11β-HSD1 reductase activity (11β-HSD1 [3]; intact ALCs, at 10 μM)?
**A.** The 11β-HSD1 reductase activity was 200 % of control.

**Q.** What about the “lowest observable effective level (LOEL) on 11β-HSD1 oxidase activity” value (11β-HSD1 [4]; intact ALCs) of the same compound?
**A.** The value was 100 nM.

**Q.** And the IC50 (11β-HSD1 [4]; intact ALCs, 25 nM CORT, 0.5 h, Mean ± SEM (n = 4), read-out: IC50 for inhibition of 11β-HSD1 oxidase, intact Leydig cells)?
**A.** Its IC50 is 1180 ± 120 nM.

**Q.** And the 11β-HSD1 oxidase activity (11β-HSD1 [4]; intact ALCs, at 1 μM)?
**A.** The 11β-HSD1 oxidase activity was 60 % of control.

**Q.** And the 11β-HSD1 oxidase/reductase ratio (11β-HSD1 [4]; intact ALCs, at 1 μM)?
**A.** The 11β-HSD1 oxidase/reductase ratio was 50 % of control.

**Q.** And the 11β-HSD1 oxidase activity (11β-HSD1 [4]; intact ALCs, at 10 μM)?
**A.** Its 11β-HSD1 oxidase activity is 25 % of control.

**Q.** And the 11β-HSD1 oxidase/reductase ratio (11β-HSD1 [4]; intact ALCs, at 10 μM)?
**A.** Its 11β-HSD1 oxidase/reductase ratio is 20 % of control.

**Q.** How did the “mode of action on 11β-HSD1 reductase” value (11β-HSD1 [1]; [5]) turn out when C[C@]12CC[C@H](O)CC1=CC[C@@H]1[C@@H]2CC[C@]2(C)C(=O)CC[C@@H]12 [DHEA, dehydroepiandrosterone] was run?
**A.** The value was “potent competitive inhibitor”.

**Q.** And the “LOEL on 11β-HSD1 reductase activity in ALC microsomes” value (11β-HSD1 [1]; ALC microsomes)?
**A.** Its value is 100 nM.

**Q.** What about the “11β-HSD1 reductase activity in ALC microsomes” value (11β-HSD1 [1]; at 10 μM) of the same compound?
**A.** The value was 25 % of control.

**Q.** And the “effect on microsomal 11β-HSD1 oxidase activity” value (11β-HSD1 [2]; ALC microsomes, 10 nM-10 μM)?
**A.** The value was “did not affect; also recorded: nearly unchanged”.

**Q.** And the “effect on microsomal 11β-HSD1 oxidase activity at 10 μM” value (11β-HSD1 [2]; ALC microsomes, at 10 μM)?
**A.** Its value is “inhibited”.

**Q.** And the “11β-HSD1 oxidase/reductase ratio in ALC microsomes” value (11β-HSD1 [2]; at 1 and 10 μM)?
**A.** The value was “significantly higher than control”.

**Q.** And the IC50 (11β-HSD1 [3])?
**A.** The IC50 was 1040 ± 60 nM.

**Q.** And the “lowest observable effective level (LOEL) on 11β-HSD1 reductase activity” value (11β-HSD1 [3]; intact ALCs)?
**A.** The value was 100 nM.

**Q.** And the 11β-HSD1 reductase activity (11β-HSD1 [3]; intact ALCs, at 10 μM)?
**A.** Its 11β-HSD1 reductase activity is 12 % of control.

**Q.** And the EC50 (11β-HSD1 [4])?
**A.** Its EC50 is 970 ± 100 nM.

**Q.** And the “lowest observable effective level (LOEL) on 11β-HSD1 oxidase activity” value (11β-HSD1 [4]; intact ALCs)?
**A.** Its value is 100 nM.

**Q.** What about the 11β-HSD1 oxidase activity (11β-HSD1 [4]; intact ALCs, at 10 μM) of the same compound?
**A.** Its 11β-HSD1 oxidase activity is 300 % of control.

**Q.** What about the “increase of 11β-HSD1 oxidase/reductase ratio” value (11β-HSD1 [4]; intact ALCs, at 10 μM) of the same compound?
**A.** Its value is 26 folds.
